Data published in the NIST ThermoML archive (doi:10.1016/j.jct.2018.08.037).
Several values for one entry are separate records, joined by “and”; a condition that tells them apart may be missing. Equal entries are not always repeated. Numbers after ± are expanded uncertainties.

Experiment: mn = molality of the nth substance listed, in mol/kg
Settings: 298.15 K, 100 kPa, Liquid, Buoyancy - hydrostatic balance

[Na+].[OH-] [sodium hydroxide] + O
mass density (m1 = 1): 1043 ± 14 kg/m3 and 1041 ± 14 kg/m3
mass density (m1 = 2): 1081 ± 14 kg/m3

[Na+].[O-][Cl+3]([O-])([O-])[O-] [sodium perchlorate] + O
mass density (m1 = 1.05): 1076 ± 14 kg/m3 and 1072 ± 15 kg/m3
mass density (m1 = 1.62): 1110 ± 14 kg/m3
mass density (m1 = 2.21): 1148 ± 14 kg/m3
mass density (m1 = 2.22): 1145 ± 14 kg/m3
mass density (m1 = 2.84): 1185 ± 16 kg/m3
mass density (m1 = 2.86): 1180 ± 16 kg/m3
mass density (m1 = 3.51): 1223 ± 14 kg/m3
mass density (m1 = 6.68): 1360 ± 14 kg/m3
